The test has as its target T1, human kinase Mps-1 (Homo sapiens, UniProt P33981).
T1 construct: N-terminally GST-tagged human full length recombinant Mps-1 kinase; GST (N); purchased Invitrogen, Karslruhe, Germany PV4071
T1 sequence (P33981 1-857): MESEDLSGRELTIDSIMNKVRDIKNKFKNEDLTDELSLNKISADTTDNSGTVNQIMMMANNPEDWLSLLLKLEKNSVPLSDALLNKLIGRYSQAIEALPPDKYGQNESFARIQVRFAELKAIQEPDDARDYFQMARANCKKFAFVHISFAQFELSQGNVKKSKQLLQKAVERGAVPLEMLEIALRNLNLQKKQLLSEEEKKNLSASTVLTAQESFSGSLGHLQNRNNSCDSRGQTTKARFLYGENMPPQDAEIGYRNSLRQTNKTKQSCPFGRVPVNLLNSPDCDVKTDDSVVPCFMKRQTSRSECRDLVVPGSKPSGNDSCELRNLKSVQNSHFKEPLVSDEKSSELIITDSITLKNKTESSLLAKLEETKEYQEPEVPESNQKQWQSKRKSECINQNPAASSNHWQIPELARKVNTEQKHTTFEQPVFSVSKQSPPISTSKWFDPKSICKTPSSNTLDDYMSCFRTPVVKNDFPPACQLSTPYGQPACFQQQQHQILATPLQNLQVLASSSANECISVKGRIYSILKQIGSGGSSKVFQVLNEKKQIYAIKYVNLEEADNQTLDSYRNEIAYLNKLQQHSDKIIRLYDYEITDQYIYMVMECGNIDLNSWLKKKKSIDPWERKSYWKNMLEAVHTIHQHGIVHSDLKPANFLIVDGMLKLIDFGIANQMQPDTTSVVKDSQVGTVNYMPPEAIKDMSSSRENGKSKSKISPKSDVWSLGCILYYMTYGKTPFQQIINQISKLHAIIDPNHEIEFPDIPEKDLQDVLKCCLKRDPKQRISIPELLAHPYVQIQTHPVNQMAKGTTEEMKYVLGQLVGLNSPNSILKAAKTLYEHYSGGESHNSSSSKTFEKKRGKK
The test can be described thus: Mps-1 kinase assay (HTRF). It is filed as biochemical. In general terms: Time-resolved FRET reads energy transfer from a long-lived donor to a nearby acceptor.

The IC50 is the concentration at which inhibition is half-maximal.

Take `N#Cc1ccccc1Nc1nc2ccc(-c3ccc(CO)cc3)cn2n1` [Example 3.14, 2-({6-[4-(hydroxymethyl)phen-yl][1,2,4]triazolo[1,5-a]pyridin-2-yl}amino)benzonitrile]: inhibition was half-maximal at 770 nM (IC50).

Compound `CCN(CC)C(=O)c1ccc(Nc2nc3ccc(-c4cc(C)c(O)c(C)c4)cn3n2)c(OC)c1` [Example 1.16, N,N-Diethyl-4-[6-(4-hydroxy-3,5-dimethyl-phenyl)-[1,2,4]triazolo[1,5-a]pyridin-2-ylamino]-3-methoxy-benzamide] came in with an IC50 of 280 nM.

Regarding `CCOc1cc(C(=O)NC(C)(C)C)ccc1Nc1nc2ccc(-c3cccc(C(=O)NCC(F)(F)F)c3)cn2n1` [Example 11.090, N-tert-butyl-3-ethoxy-4-[(6-{3-[(2,2,2-trifluoroethyl)carbamoyl]phenyl}[1,2,4]triazolo [1,5-a]pyridin-2-yl)amino]benzamide], the IC50 turned out to be 1.62 nM.

The compound `N#Cc1ccccc1Nc1nc2ccc(-c3cc(F)cc(C(=O)O)c3)cn2n1` [Example 11.074, 3-{2-[(2-cyanophenyl)amino][1,2,4]triazolo[1,5-a]pyridin-6-yl}-5-fluorobenzoic acid] came in with an IC50 of 170 nM.

Compound `O=C(NCCO)c1ccc(Nc2nc3ccc(-c4cccc(C(=O)NCC(F)(F)F)c4)cn3n2)c(OCC(F)(F)F)c1` [Example 11.093, N-(2-hydroxyethyl)-3-(2,2,2-trifluoroethoxy)-4-[(6-{3-[(2,2,2-trifluoroethyl)carbamoyl]phenyl}[1,2,4]triazolo [1,5-a]pyridin-2-yl)amino]benzamide] registered an IC50 not above 1 nM.

With `CC(C)NC(=O)c1cccc(-c2ccc3nc(Nc4ccccc4C#N)nn3c2)c1` [Example 9.4, 3-{2-[(2-cyanophenyl)amino][1,2,4]triazolo[1,5-a]pyridin-6-yl}-N-(propan-2-yl)benzamide], the IC50 worked out at 8.8 nM.

The compound `CCOc1ccccc1Nc1nc2ccc(-c3cc(C)c(O)c(C)c3)cn2n1` [Example 1.12, 4-{2-[(2-ethoxyphenyl)amino] [1,2,4]triazolo[1,5-a]pyridin-6-yl}-2,6-dimethylphenol] showed an IC50 of 92 nM.

For `COc1cc(C(=O)NC(C)(C)C)ccc1Nc1nc2ccc(-c3cccc(C(=O)NCC(C)(C)C)c3)cn2n1` [Example 11.082, N-tert-butyl-4-[(6-{3-[(2,2-dimethylpropyl)carbamoyl]phenyl}[1,2,4]tria-zolo[1,5-a]pyridin-2-yl)amino]-3-methoxybenzamide], the half-inhibitory concentration (IC50) came to 1.23 nM.

As for `CC(C)(C)NC(=O)c1cccc(-c2ccc3nc(Nc4ccccc4C#N)nn3c2)c1F` [Example 11.065, N-tert-butyl-3-{2-[(2-cyanophenyl)amino][1,2,4]triazolo[1,5-a]pyridin-6-yl}-2-fluorobenzamide], the IC50 stood at 18.2 nM.

In turn, `C[C@@H](NC(=O)c1cccc(-c2ccc3nc(Nc4ccccc4C#N)nn3c2)c1)C(F)(F)F` [Example 11.040, 3-{2-[(2-cyanophenyl)amino][1,2,4]triazolo[1,5-a]pyridin-6-yl}-N-[(2R)-1,1,1-trifluoropropan-2-yl]benzamide] came in with an IC50 of 1.27 nM.

The compound `CCOCCNC(=O)c1ccc(Nc2nc3ccc(-c4ccc(C(=O)NCC(F)(F)F)cc4)cn3n2)c(OC)c1` [Example 11.015, N-(2-ethoxyethyl)-3-methoxy-4-[(6-{4-[(2,2,2-trifluoroethyl)carbamoyl]phenyl}[1,2,4]triazolo [1,5-a]pyridin-2-yl)amino]benzamide] yielded an IC50 of 1.64 nM.

The compound `CC(=O)Nc1ccccc1-c1ccc2nc(Nc3ccccc3C#N)nn2c1` [Example 3.4, N-(2-{2-[(2-cyanophenyl)amino] [1,2,4]triazolo[1,5-a]pyridin-6-yl}phenyl)acetamide] came in with an IC50 of 6100 nM.

`CCOc1ccccc1Nc1nc2ccc(-c3cccc(NC(C)=O)c3)cn2n1` [Example 2.10, N-(3-{2-[(2-ethoxyphenyl)amino] [1,2,4]triazolo[1,5-a]pyridin-6-yl}phenyl)acetamide]: 130 nM corresponded to half-maximal inhibition (IC50).
